The source made the active and inactive calls.

In general, EC50 refers to the concentration at which the effect is half-maximal. As a reminder, the AC50 is the concentration at which the activity in the assay is half-maximal. For orientation: IC50 means the concentration at which inhibition is half-maximal. By Ki is commonly meant the equilibrium dissociation constant of an inhibitor or competing ligand from its target.

Test [1] deals with T1, Zinc finger protein mex-5 (Caenorhabditis elegans, UniProt Q9XUB2).
T1 sequence (Q9XUB2 whole entry): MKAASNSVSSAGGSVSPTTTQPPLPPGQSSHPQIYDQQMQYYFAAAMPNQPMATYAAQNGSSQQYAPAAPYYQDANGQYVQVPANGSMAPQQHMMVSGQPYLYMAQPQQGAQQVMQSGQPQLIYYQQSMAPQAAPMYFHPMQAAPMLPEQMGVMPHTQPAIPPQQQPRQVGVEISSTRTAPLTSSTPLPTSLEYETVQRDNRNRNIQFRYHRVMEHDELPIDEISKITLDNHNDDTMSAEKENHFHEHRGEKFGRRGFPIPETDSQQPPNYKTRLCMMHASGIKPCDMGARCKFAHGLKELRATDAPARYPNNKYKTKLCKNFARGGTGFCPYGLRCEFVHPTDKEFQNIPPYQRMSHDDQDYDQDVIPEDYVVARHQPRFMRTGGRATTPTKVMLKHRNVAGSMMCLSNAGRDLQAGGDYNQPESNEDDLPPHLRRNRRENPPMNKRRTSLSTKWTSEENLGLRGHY
Nature of the test: potency of MEX-5 RNA-binding blockers – biochemical, C. elegans, fluorescence polarization, dose response (AID 1960). (In general: In fluorescence polarisation assays a small probe gives low polarisation when free and higher when bound to something large.)

A further test has as its target ORF 73 (Human herpesvirus 8, UniProt O40947). In words: KSHV LANA DNA-binding disruption – biochemical, fluorescence polarization, cherry-picked samples, dose response (AID 504725).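 Further: fluorescence polarization of a labeled DNA duplex reporting LANA DNA binding; potency is for inhibitors that block LANA binding to the DNA.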 Further details: species or system Human gammaherpesvirus 8.
Test [2] concerns the target NACHT, LRR and PYD domains-containing protein 1 (Homo sapiens, UniProt Q9C000). Nature of the test: NALP1 inhibitors in yeast, dose response, luminescent (AID 488860). Format: functional.
Test [3] addresses Mitochondrial peptide methionine sulfoxide reductase (Bos taurus, UniProt P54149). In words: Absorbance-based biochemical high throughput dose response assay for activators of Methionine sulfoxide reductase A (MsrA). The test is classed as functional.
Test [4] addresses T2, Sentrin-specific protease 8 (Homo sapiens, UniProt Q96LD8).
T2 sequence (Q96LD8 whole entry): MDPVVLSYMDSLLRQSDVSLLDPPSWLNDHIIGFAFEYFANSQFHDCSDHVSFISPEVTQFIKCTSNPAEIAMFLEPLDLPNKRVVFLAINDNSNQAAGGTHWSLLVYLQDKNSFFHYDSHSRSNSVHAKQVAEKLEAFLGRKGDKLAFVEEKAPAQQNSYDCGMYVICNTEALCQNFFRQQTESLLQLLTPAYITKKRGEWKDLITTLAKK
Format: functional.

Test [5] has as its target T2, Sentrin-specific protease 8. The test is classed as functional. The source holds these as a separate data set.
A further test deals with T3, Caspase-6 (Homo sapiens, UniProt P55212).
T3 sequence (P55212 whole entry): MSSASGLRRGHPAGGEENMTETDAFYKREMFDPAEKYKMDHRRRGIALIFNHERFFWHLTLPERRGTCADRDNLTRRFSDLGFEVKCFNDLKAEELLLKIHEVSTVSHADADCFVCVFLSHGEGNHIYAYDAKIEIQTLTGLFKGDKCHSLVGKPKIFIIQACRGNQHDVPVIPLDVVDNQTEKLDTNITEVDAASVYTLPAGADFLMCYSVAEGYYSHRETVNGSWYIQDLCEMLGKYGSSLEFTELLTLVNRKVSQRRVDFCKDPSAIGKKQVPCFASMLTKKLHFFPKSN
Nature of the test: inhibition of CASP6 peptide cleavage – biochemical, VEID-R110 fluorescence, cherry-pick, dose response (AID 720632).

Test [6] deals with Serine/threonine-protein kinase 17A (Homo sapiens, UniProt Q9UEE5). Format: functional.
The target of test [7] is Cyclin-dependent kinase 2 (Homo sapiens, UniProt P24941). The test is classed as functional.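 Further: CDK2 measured as one member of a broad kinome profiling panel.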
Test [8] deals with Cell division cycle 7-related protein kinase (Homo sapiens, UniProt O00311). Format: functional.
Test [9] has as its target Calcium/calmodulin-dependent protein kinase type II subunit delta (Homo sapiens, UniProt Q13557). Format: functional.
Test [10] addresses Serine/threonine-protein kinase N2 (Homo sapiens, UniProt Q16513). Format: functional.
For test [11], the target named is Homeodomain-interacting protein kinase 2 (Homo sapiens, UniProt Q9H2X6). Format: functional.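 Further: measured within a kinome-wide kinase profiling panel, HIPK2 being one panel member.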
The next test addresses Large T antigen (Simian virus 40, UniProt P03070). Format: functional, Betapolyomavirus macacae.
A further test concerns the target Cytochrome P450 2C19 (Homo sapiens, UniProt P33261). Nature of the test: Cytochrome panel assay with activity outcomes. Panel member name: p450-cyp2c19 Compounds with AC50 equal or less than 10 uM are considered active. Format: functional. The following applies: read-out: AC50.
The target in test [12] is Tyrosine-protein kinase HCK (Homo sapiens, UniProt P08631). Nature of the test: Navigating the Kinome. Panel member name: HCK. The test is classed as functional.
Test [13] addresses Mast/stem cell growth factor receptor Kit (Homo sapiens, UniProt P10721). Format: functional.
Test [14] deals with Proto-oncogene tyrosine-protein kinase ROS (Homo sapiens, UniProt P08922). The test is classed as functional.
Test [15] concerns the target MAP/microtubule affinity-regulating kinase 3 (Homo sapiens, UniProt P27448). Format: functional.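 Further: MARK3 affinity measured as one member of a kinome panel.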
Test [16] concerns the target Serine/threonine-protein kinase SIK2 (Homo sapiens, UniProt Q9H0K1). Nature of the test: Navigating the Kinome. Panel member name: SIK2. Format: functional.
The next test concerns the target Focal adhesion kinase 1 (Homo sapiens, UniProt Q05397). Format: functional.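 Further: measured as one member of a kinome panel.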
Test [17] addresses Mitogen-activated protein kinase kinase kinase kinase 4 (Homo sapiens, UniProt O95819). Format: functional.
The target of test [18] is Mitogen-activated protein kinase kinase kinase 10 (Homo sapiens, UniProt Q02779). Nature of the test: Navigating the Kinome. Panel member name: MAP3K10. Format: functional.

Chain of Mast/stem cell growth factor receptor Kit (P10721 whole entry): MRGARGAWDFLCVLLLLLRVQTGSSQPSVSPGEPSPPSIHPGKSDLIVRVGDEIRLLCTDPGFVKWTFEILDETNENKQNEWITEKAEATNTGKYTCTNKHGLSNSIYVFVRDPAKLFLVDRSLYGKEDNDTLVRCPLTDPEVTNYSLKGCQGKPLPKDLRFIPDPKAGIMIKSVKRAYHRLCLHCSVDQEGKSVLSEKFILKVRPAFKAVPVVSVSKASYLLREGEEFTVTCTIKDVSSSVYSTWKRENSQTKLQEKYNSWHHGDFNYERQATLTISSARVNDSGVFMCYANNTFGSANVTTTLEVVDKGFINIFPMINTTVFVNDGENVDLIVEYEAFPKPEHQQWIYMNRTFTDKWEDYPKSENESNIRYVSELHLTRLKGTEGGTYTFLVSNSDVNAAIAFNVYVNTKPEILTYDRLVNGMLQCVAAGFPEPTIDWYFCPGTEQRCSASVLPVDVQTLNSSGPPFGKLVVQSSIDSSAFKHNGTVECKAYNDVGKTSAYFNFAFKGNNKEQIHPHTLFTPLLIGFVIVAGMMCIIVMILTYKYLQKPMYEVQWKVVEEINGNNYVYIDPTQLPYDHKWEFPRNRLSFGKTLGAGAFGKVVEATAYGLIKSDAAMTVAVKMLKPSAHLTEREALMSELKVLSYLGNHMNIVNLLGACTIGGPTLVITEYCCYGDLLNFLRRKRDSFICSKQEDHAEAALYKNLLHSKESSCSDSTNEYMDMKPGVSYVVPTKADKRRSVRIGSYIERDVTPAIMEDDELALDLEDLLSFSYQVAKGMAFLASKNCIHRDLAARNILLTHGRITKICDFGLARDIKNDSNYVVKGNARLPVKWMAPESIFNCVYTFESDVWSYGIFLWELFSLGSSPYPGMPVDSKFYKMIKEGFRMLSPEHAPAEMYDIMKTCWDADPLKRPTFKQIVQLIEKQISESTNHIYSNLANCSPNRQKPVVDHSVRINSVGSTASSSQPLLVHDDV
Chain of Mitogen-activated protein kinase kinase kinase kinase 4 (O95819 whole entry): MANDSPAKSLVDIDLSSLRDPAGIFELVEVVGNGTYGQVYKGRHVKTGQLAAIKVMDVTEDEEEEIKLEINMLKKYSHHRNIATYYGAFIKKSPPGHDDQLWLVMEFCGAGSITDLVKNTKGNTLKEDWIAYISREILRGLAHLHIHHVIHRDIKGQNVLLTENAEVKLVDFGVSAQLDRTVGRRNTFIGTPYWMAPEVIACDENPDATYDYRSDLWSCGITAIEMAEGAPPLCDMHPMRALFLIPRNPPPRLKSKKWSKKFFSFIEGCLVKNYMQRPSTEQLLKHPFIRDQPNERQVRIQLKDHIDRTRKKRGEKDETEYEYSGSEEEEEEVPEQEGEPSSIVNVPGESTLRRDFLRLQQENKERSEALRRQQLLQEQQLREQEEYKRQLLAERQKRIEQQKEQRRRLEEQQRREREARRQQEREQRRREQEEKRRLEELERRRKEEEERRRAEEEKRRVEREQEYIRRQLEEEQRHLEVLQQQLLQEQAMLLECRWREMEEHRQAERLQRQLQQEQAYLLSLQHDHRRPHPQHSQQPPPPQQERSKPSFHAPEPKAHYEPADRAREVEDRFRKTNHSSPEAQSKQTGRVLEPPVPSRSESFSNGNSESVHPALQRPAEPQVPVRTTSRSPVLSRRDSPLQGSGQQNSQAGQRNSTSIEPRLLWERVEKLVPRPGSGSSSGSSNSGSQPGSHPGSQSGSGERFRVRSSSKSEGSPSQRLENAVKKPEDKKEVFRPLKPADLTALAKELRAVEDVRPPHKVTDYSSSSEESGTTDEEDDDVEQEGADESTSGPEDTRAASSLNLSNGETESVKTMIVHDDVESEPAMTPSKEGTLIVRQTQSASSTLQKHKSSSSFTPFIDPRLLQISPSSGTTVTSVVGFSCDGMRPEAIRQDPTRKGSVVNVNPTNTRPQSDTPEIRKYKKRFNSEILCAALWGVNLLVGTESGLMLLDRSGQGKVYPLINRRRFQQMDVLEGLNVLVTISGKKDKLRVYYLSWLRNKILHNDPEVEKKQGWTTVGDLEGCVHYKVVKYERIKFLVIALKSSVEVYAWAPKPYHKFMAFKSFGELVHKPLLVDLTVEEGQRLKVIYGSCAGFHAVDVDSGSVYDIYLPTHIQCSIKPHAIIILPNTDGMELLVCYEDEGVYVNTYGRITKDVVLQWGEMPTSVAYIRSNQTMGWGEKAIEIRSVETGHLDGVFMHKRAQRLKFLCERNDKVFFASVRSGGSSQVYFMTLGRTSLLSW
Chain of Serine/threonine-protein kinase 17A (Q9UEE5 whole entry): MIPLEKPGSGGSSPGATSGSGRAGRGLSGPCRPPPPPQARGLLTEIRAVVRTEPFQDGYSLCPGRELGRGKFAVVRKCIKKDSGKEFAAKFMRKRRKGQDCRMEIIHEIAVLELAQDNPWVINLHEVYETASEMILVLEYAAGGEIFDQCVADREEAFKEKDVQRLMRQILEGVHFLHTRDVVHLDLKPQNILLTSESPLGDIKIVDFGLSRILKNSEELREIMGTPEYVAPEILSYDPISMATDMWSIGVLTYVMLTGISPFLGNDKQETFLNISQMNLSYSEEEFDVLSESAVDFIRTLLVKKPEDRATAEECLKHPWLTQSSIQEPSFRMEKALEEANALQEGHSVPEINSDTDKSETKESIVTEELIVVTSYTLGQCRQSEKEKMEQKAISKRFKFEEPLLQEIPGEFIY
Chain of NACHT, LRR and PYD domains-containing protein 1 (Q9C000 1-1212 limits assumed): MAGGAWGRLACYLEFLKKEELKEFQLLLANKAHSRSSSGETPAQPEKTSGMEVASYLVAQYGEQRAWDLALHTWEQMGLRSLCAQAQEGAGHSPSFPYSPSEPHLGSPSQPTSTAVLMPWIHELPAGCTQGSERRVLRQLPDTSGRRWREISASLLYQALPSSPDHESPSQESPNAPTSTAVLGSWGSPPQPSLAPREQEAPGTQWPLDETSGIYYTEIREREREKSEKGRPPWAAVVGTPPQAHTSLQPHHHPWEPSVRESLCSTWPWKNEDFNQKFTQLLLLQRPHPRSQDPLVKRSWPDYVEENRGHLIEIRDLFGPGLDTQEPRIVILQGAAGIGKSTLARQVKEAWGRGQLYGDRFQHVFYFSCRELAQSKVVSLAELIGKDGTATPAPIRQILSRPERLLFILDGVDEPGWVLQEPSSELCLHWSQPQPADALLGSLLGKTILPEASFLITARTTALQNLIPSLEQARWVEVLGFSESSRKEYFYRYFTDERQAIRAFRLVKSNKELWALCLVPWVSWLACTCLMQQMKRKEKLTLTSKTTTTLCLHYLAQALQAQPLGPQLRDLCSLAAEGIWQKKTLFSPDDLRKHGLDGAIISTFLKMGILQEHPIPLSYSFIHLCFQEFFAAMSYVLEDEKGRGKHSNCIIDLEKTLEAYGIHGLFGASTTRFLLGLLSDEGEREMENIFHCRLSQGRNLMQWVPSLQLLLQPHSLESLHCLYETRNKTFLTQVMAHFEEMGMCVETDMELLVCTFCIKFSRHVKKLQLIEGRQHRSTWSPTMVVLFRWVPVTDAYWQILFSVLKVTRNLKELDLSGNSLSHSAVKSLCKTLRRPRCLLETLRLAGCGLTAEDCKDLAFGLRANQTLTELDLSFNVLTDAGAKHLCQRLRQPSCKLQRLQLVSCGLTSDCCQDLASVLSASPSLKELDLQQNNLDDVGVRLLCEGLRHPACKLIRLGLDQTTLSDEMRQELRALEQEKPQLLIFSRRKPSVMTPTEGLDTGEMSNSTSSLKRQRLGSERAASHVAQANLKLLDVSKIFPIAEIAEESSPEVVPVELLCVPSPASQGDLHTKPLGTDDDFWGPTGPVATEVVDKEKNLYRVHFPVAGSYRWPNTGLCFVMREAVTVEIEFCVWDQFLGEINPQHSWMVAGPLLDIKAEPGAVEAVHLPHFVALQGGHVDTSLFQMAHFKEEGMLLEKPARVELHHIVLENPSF
Chain of NACHT, LRR and PYD domains-containing protein 1 (Q9C000 1213-1473 limits assumed): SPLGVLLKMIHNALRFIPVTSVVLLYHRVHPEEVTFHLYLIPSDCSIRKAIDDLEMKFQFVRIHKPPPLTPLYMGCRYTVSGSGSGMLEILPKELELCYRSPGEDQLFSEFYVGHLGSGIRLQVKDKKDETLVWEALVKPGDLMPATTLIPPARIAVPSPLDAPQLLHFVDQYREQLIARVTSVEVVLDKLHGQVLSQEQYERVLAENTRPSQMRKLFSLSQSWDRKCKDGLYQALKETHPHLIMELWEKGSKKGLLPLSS
Chain of Mitochondrial peptide methionine sulfoxide reductase (P54149 whole entry): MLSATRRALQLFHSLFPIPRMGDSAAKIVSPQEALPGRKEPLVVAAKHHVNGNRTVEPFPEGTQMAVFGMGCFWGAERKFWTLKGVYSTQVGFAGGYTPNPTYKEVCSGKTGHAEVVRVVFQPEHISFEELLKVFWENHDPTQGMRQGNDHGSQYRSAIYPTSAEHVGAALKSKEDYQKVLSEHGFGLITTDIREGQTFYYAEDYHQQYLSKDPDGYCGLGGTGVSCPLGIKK
Chain of Cell division cycle 7-related protein kinase (O00311 whole entry): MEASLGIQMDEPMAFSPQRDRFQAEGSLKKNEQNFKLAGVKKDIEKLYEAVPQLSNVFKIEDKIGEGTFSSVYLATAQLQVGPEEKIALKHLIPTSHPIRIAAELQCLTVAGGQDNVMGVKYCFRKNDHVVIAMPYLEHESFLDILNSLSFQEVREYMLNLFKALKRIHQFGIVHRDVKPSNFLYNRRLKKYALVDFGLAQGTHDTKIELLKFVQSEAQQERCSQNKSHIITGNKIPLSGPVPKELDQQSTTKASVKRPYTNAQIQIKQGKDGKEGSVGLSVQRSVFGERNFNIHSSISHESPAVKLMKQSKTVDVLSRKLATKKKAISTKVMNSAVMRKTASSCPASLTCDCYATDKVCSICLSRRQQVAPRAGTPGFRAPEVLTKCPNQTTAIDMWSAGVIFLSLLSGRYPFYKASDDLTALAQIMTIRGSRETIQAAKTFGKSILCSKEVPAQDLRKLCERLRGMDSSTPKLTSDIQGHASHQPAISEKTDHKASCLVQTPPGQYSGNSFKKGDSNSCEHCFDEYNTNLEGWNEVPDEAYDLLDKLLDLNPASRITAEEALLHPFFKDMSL

Turning to `c1ccc2nc3cc4[nH]cnc4cc3nc2c1`, the results for the EC50 in [1] and in [3] were 1.74 µM (inconclusive) and 53 µM (inactive), respectively. Further, the values for the AC50 on ORF 73 and at Caspase-6 were 7.45 µM (active) and 33 µM (active), respectively. The IC50 is > 100 µM (inactive) in [2], 12.5 µM (active) in [4] and 10.8 µM (active) in test [5].

Turning to `CCCCC(=O)Nc1cc(-c2c[nH]c3ncccc23)cc(Cl)n1`, the Ki in test [6] was > 3.16 µM (inactive); in test [7], > 3.16 µM (inactive); in [8], 0.000501 µM (active); in [9] it was > 3.16 µM (inactive); in [10] it was > 5.01 µM (inactive); in test [11], > 3.98 µM (inactive).

Turning to `Oc1ccc(-c2nc(-c3ccncc3)c(-c3ccc(F)cc3)[nH]2)cc1` [SB-202190], the IC50 at Large T antigen is 4.87 µM (active). The half-maximal activity concentration (AC50) on Cytochrome P450 2C19 is 10 µM (inconclusive). The Ki in test [12] was > 3.16 µM (inactive); in [13] it was > 6.31 µM (inactive); in test [14], 2.51 µM (active); in test [15], > 5.01 µM (inactive); in [16] it was > 3.98 µM (inactive); at Focal adhesion kinase 1 it was > 3.98 µM (inactive). Further, the Ki in test [17] is 1 µM (active); in test [18], > 3.16 µM (inactive).

Source of the values: ChEMBL document CHEMBL1201862, “PubChem BioAssay data set” (2004).
